Test results published in the NIST ThermoML archive (doi:10.1021/acs.jced.8b01062).
Numbers after ± are expanded uncertainties.

Columns and labels:
[1] = Molar enthalpy of transition or fusion; conditions: Crystal; DSC
[2] = Crystal; DSC

Structure (SMILES): CC#C[C@]1(O)CC[C@H]2[C@@H]3CCC4=CC(=O)CCC4=C3[C@@H](c3ccc(N(C)C)cc3)C[C@@]21C [mifepristone]
- Molar enthalpy of transition or fusion [1]: 4.64 ± 0.21 kcal/mol
- Triple point temperature [2]: 465.45 ± 0.81 K
